Assays:
[1] = system: Rabbit Psoas myofibrils (skeletal myosin ATPase); assay: Myofibril ATPase assay, rabbit psoas (skeletal) myofibrils; type: biochemical; conditions: rabbit psoas myofibrils; Y75 value
How it was run: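 Rabbit psoas skeletal myofibrils in PIPES/CaCl2/EGTA pCa buffer, pH 7.0. ATPase rate followed by PK-LDH-coupled NADH loss at 340 nm, read every 1.5–2 min for 75 min. Slopes normalized to vehicle (100%) and fitted to a 4-parameter logistic; values are Y75 (25% inhibition) or Y125 (25% activation) concentrations.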

[2] = system: Porcine atria myofibrils (atrial myosin ATPase); assay: Myofibril ATPase assay, porcine atria myofibrils; type: biochemical; conditions: porcine atria myofibrils; Y75 value (75% activity relative to no compound)
How it was run: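 Coupled PK-LDH reaction links ADP from myosin ATPase to NADH loss, read at 340 nm every 1.5-2 min for 75 min. Slopes (mAU/min) normalized to vehicle-only wells (100%) and fit to a 4-parameter logistic; Y75 is the concentration cutting activity by 25%, Y125 is reported for activators.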

[3] = target: T1, Porcine ventricle myofibrils (ventricular myosin ATPase) (Sus scrofa, UniProt P79293); assay: Myofibril ATPase assay, porcine ventricle myofibrils; type: biochemical, porcine (Yucatan minipigs); conditions: porcine ventricle myofibrils; Y75 value
T1 construct: Myofibrils from porcine cardiac muscle was isolated from the left ventricle of Yucatan minipigs; tissue Exemplar Genetics; host or cells: left ventricle of Yucatan minipigs, myofibrils prepared in house
T1 sequence (P79293 whole entry): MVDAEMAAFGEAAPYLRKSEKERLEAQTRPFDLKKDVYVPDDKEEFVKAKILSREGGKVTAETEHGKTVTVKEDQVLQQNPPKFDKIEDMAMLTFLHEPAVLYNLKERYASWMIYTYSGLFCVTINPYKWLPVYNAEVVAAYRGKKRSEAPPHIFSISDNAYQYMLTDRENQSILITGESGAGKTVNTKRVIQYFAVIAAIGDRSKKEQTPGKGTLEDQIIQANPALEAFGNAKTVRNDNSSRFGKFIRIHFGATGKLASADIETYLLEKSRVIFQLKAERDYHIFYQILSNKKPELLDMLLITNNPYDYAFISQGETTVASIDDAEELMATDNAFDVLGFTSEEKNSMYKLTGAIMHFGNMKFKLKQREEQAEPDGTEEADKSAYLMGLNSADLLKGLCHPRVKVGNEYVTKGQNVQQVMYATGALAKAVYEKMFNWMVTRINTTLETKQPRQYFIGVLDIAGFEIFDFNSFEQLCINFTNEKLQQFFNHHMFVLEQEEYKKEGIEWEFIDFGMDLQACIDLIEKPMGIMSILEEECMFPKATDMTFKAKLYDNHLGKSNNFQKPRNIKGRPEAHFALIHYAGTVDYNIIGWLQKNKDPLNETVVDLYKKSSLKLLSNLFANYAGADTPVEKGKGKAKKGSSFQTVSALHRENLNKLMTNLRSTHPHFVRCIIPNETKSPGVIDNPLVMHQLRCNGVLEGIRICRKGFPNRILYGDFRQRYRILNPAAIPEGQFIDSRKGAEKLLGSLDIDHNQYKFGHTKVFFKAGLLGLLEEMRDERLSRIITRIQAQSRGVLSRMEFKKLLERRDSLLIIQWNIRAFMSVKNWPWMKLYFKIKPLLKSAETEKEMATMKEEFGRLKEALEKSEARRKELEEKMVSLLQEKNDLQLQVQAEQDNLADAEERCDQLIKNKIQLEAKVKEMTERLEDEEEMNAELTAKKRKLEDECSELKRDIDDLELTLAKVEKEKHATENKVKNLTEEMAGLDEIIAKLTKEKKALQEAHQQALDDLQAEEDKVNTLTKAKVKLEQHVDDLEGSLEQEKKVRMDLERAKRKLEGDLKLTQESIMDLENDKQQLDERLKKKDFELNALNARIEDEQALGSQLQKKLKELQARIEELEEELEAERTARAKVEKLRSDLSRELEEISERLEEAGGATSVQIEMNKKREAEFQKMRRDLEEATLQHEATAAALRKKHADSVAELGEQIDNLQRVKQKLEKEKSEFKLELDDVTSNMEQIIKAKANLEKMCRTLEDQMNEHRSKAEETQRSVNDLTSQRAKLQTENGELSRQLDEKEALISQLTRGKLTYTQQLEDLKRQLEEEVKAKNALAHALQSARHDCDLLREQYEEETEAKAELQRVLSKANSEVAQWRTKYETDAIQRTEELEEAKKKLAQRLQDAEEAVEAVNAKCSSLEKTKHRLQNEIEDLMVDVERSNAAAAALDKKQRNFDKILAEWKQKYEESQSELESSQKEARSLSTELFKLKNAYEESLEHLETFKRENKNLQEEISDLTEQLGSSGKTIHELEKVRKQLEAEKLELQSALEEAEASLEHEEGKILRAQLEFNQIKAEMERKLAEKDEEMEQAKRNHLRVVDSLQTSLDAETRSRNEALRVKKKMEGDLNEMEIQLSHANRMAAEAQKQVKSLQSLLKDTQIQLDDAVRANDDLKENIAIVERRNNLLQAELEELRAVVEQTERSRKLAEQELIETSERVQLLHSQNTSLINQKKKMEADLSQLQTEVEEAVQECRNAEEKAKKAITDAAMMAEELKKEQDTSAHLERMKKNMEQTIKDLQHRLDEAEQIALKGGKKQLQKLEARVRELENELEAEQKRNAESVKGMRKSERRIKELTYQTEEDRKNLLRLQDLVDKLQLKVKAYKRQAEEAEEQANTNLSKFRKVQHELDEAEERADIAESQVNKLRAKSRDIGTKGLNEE
How it was run: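 ATPase activity of porcine left-ventricle myofibrils (Yucatan minipig) was followed through PK-LDH coupling as NADH loss at 340 nm, read every 1.5-2 min for 75 min. Slopes were normalised to vehicle wells and fitted to a 4-parameter logistic model. Values are Y75, the concentration giving a 25% drop in activity, or Y125 for activators.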

Skeletal EC25 [1] [µM] | Atrial EC25 [2] [µM] | Ventricular EC25 [3] [µM] | SMILES
17.50 | 10.21 | 100.00 | Cc1c(CC(=O)N[C@@H](C)c2ccc(F)cc2F)c(=O)[nH]c2ccc(O)nc12 [compound 299]
100.00 | 100.00 | 100.00 | C[C@H](NC(=O)Cc1cc2nc(O)ccc2[nH]c1=O)c1ccc(F)cc1F [compound 300]
1.55 | 2.39 | 9.62 | CCN(CC)c1nccc2[nH]c(=O)c(CC(=O)N[C@@H](C)c3ccc(F)cc3F)c(C)c12 [compound 343]
1.83 | 10.74 | 51.73 | Cc1c(CC(=O)N[C@@H](C)c2ccc(F)cc2F)c(=O)[nH]c2ccnc(N3CCOCC3)c12 [compound 345]
2.37 | 100.00 | 100.00 | Cc1c(CC(=O)N[C@@H](C)c2ccc(F)cc2F)c(=O)[nH]c2ccnc(N3CCCC3)c12 [compound 346]
0.13 | 0.76 | 5.41 | Cc1c(C(C)C(=O)N[C@@H](C)c2ccc(F)cc2F)c(=O)[nH]c2ccnc(I)c12 (stereo partly drawn) [compound 349]
0.06 | 0.99 | 1.99 | CC#Cc1nccc2[nH]c(=O)c(CC(=O)N[C@@H](C)c3ccc(F)cc3F)c(C)c12 [compound 350]
0.06 | 0.14 | 0.97 | CCNc1nccc2[nH]c(=O)c(CC(=O)N[C@@H](C)c3ccc(F)cc3F)c(C)c12 [compound 351]
0.18 | 2.64 | 31.62 | Cc1c(CC(=O)N[C@@H](C)c2ccc(F)cc2F)c(=O)[nH]c2ccnc(N)c12 [compound 352]
0.06 | 0.14 | 0.31 | Cc1c(CC(=O)N[C@@H](C)c2ccc(F)cc2F)c(=O)[nH]c2ccnc(I)c12 [compound 353]
0.19 | 2.11 | 49.13 | CNc1nccc2[nH]c(=O)c(CC(=O)N[C@@H](C)c3ccc(F)cc3F)c(C)c12 [compound 354]
0.06 | 0.06 | 0.31 | Cc1c(CC(=O)N[C@@H](C)c2ccc(F)cc2F)c(=O)[nH]c2ccc(Br)nc12 [compound 357]
0.04 | 0.11 | 100.00 | Cc1c(CC(=O)N[C@@H](C)c2ccc(F)cc2F)c(=O)[nH]c2ccc(OC(F)(F)F)nc12 [compound 359]
0.40 | 9.38 | 100.00 | CC(C(=O)N[C@@H](C)c1ccc(F)cc1F)c1cc2c(I)nccc2[nH]c1=O (stereo partly drawn) [compound 362]
0.04 | 0.36 | 2.83 | Cc1c(C(C)C(=O)N[C@@H](C)c2ccc(F)cc2F)c(=O)[nH]c2ccnc(C#N)c12 (stereo partly drawn) [compound 363]
0.37 | 3.04 | 100.00 | Cc1c(CC(=O)N[C@@H](C)c2ccc(F)cc2F)c(=O)[nH]c2ccnc(OCC(C)C)c12 [compound 371]
1.61 | 100.00 | 100.00 | Cc1c(CC(=O)N[C@@H](C)c2ccc(F)cc2F)c(=O)[nH]c2ccnc(OCC(C)(C)F)c12 [compound 372]
0.01 | 0.06 | 0.29 | Cc1c(CC(=O)N[C@@H](C)c2ccc(F)cc2F)c(=O)[nH]c2ccnc(C(F)(F)F)c12 [compound 377]
0.01 | 0.06 | 0.77 | Cc1c(CC(=O)N[C@@H](C)c2ccc(F)cc2F)c(=O)[nH]c2ccnc(OCC(F)F)c12 [compound 380]
0.01 | 0.10 | 0.31 | CCOc1nccc2[nH]c(=O)c(CC(=O)N[C@@H](C)c3ccc(F)cc3F)c(C)c12 [compound 381]
0.04 | 0.21 | 11.67 | CCCOc1nccc2[nH]c(=O)c(CC(=O)N[C@@H](C)c3ccc(F)cc3F)c(C)c12 [compound 384]
0.03 | 0.06 | 0.33 | COc1nccc2[nH]c(=O)c(CC(=O)N[C@@H](C)c3ccc(F)cc3F)c(C)c12 [compound 385]

Skeletal EC25 [1] [µM] | Atrial EC25 [2] [µM] | Ventricular EC25 [3] [µM] | SMILES
0.03 | 0.12 | 1.51 | Cc1c(CC(=O)N[C@@H](C)c2ccc(F)cc2F)c(=O)[nH]c2ccnc(OC3CC3)c12 [compound 386]
0.67 | 1.08 | 38.06 | C[C@H](NC(=O)Cc1cc2nc(Cl)ccc2[nH]c1=O)c1ccc(F)cc1F [compound 388]
0.25 | 0.71 | 100.00 | C[C@H](NC(=O)Cc1cc2c(OCC(F)F)nccc2[nH]c1=O)c1ccc(F)cc1F [compound 389]
7.06 | 100.00 | 44.80 | C[C@H](NC(=O)Cc1cc2nc(Cl)ncc2[nH]c1=O)c1ccc(F)cc1F [compound 390]
0.01 | 0.05 | 0.29 | Cc1c(CC(=O)N[C@@H](C)c2ccc(F)cc2F)c(=O)[nH]c2ccnc(F)c12 [compound 391]
0.07 | 0.13 | 2.65 | C[C@H](NC(=O)Cc1cc2nc(F)ccc2[nH]c1=O)c1ccc(F)cc1F [compound 392]
0.02 | 2.46 | 0.42 | Cc1c(CC(=O)N[C@@H](C)c2ccc(F)cc2F)c(=O)[nH]c2ccc(C(F)(F)F)nc12 [compound 393]
0.03 | 0.27 | 0.53 | C[C@H](NC(=O)Cc1cc2c(F)nccc2[nH]c1=O)c1ccc(F)cc1F [compound 394]
1.87 | 100.00 | 32.40 | C[C@H](NC(=O)Cc1cc2nc(C(F)(F)F)ccc2[nH]c1=O)c1ccc(F)cc1F [compound 397]
0.36 | 1.55 | 100.00 | Cc1c(CC(=O)N[C@@H](C)c2ccc(F)cc2F)c(=O)[nH]c2ccc(OCC(F)(F)F)nc12 [compound 400]
0.02 | 0.05 | 0.20 | Cc1c(C(F)(F)C(=O)N[C@@H](C)c2ccc(F)cc2F)c(=O)[nH]c2ccnc(Cl)c12 [compound 401]
0.02 | 0.04 | 0.19 | Cc1c(CC(=O)N[C@@H](C)c2ccc(F)cc2F)c(=O)[nH]c2ccnc(Cl)c12 [compound 402]
0.04 | 0.15 | 1.12 | Cc1nccc2[nH]c(=O)c(C(F)(F)C(=O)N[C@@H](C)c3ccc(F)cc3F)c(C)c12 [compound 405]
0.02 | 0.10 | 0.38 | Cc1nccc2[nH]c(=O)c(CC(=O)N[C@H]3CCc4cc(F)cc(F)c43)c(C)c12 [compound 406]
0.02 | 0.10 | 0.33 | Cc1cc(F)ccc1[C@H](C)NC(=O)Cc1c(C)c2c(C)nccc2[nH]c1=O [compound 407]
0.03 | 0.04 | 0.59 | COc1ccc2[nH]c(=O)c(CC(=O)N[C@@H](C)c3ccc(F)cc3F)c(C)c2n1 [compound 409]
0.03 | 0.16 | 13.93 | CCOc1ccc2[nH]c(=O)c(CC(=O)N[C@@H](C)c3ccc(F)cc3F)c(C)c2n1 [compound 414]
0.17 | 9.70 | 9.50 | C[C@H](NC(=O)Cc1c(C(F)(F)F)c2ncccc2[nH]c1=O)c1ccc(F)cc1F [compound 417]
2.19 | 2.66 | 48.43 | Cc1c(CC(=O)N[C@@H](C)c2ccc(F)cc2F)c(=O)[nH]c2ccnnc12 [compound 418]
0.19 | 0.49 | 100.00 | Cc1ccc2[nH]c(=O)c(CC(=O)N[C@@H](C)c3ccc(F)cc3F)c(C(F)(F)F)c2n1 [compound 419]
0.19 | 0.11 | 2.34 | Cc1ccc2[nH]c(=O)c(CC(=O)N[C@@H](C)c3ccc(F)cc3F)c(C)c2n1 [compound 420]

Source: patent publication US12448369B2 (Edgewise Therapeutics, Inc., priority 2023, dated 2025)
